According to patent US20230255969A1, “TARGETING IMMUNE P[…] BY HIGHLY PATHOGENIC CORONAVIRUSES” (priority 2020, published 2023):

Test system: bone marrow derived mast cells (BMMCs)
Format: cell-based, C57Bl/6 mouse

O=C(O)c1cc(=O)c2c(OCC(O)COc3cccc4oc(C(=O)O)cc(=O)c34)cccc2o1 [cromolyn, 5-[3-(2-carboxy-4-oxochromen-5-yl)oxy-2-hydroxypropoxy]-4-oxochromene-2-carboxylic acid]
Mast cell degranulation in response to SARS-CoV-2 Spike protein (percentage degranulation): reduced
